Reference: patent publication US20240101667A1, “METHODS FOR IDENTIFYING LILRB-BLOCKING ANTIBODIES” (THE BOARD OF REGENTS OF THE UNIVERSITY OF TEXAS SYSTEM, priority 2020, published 2024)
Where a SMILES comes first, the peptide text is derived from it. The star is where a group is joined. Cbz = O=C(OCc1ccccc1)*; CH2F = FC*

How the values were obtained:
Type in all cases: cell-based, human
[1] = system: THP-1, Molm13, MV4 AML cells; experiment: AML cell death / growth in plates coated with anti-LILRB3 (PI staining); conditions: QNZ 10 μM
Method: Cell culture. THP-1, MV4-11, Molm13, U937, C1498 and 293T cells were purchased from ATCC. AML cell lines were cultured in RPMI-1640 with 10% FBS. Human anti-LILRB3 with the N297A mutation was coated onto the plate to activate LILRB3 signaling, and plates coated with human IgG (N297A) were used as controls. Cells infected with virus were cultured for at least an additional 3 weeks before analysis of LILRB3 signaling. Dead cells were identified using PI staining. Primary human T cells were isolated by autoMACS from donor PBMCs, stimulated with anti-CD3 and anti-CD28, and cultured in RPMI-1640 in the presence of IL-2. For the cytotoxic T lymphocyte assay, human AML cells were stained with CFSE and mixed at different ratios with activated T cells. After 10 hours, the percentage of PI-positive CFSE-stained AML cells was determined by FACS.

NF-κB signaling [2] = experiment: NF-κB reporter assay in THP-1-Lucia NF-κB cells; conditions: for NF-κB reporter activity activated by LILRB3: THP-1-Lucia cells activated with anti-LILRB3 antibody
Method: (§1) NF-κB reporter assay and LILRB3 chimeric receptor reporter assay. THP-1-Lucia™ NF-κB cells were purchased from InvivoGen. Human anti-LILRB3 antibody with the N297A mutation was coated onto the plate to activate LILRB3 signaling, and plates coated with hIgG (N297A) were used as the control. The activation of NF-κB signaling was evaluated by monitoring luciferase signal. Infected THP-1 reporter cells were cultured for an additional month before stimulation with anti-LILRB3. For the NF-κB reporter assay conducted in 293T cells, an NF-κB-driven firefly luciferase reporter plasmid co-transfected with a plasmid encoding CMV-driven Renilla luciferase along with plasmids expressing LILRB3, TRAF2, or cFLIP were transfected into cells. The luciferase activity was detected using the Dual-Luciferase® Reporter (DLR™) Assay System (Promega). LILRB3 chimeric receptor reporter cells were constructed as the inventors described (Deng et al., 2014; 2018; Kang et al., 2015), with LILRB3-ECD fused with the transmembrane and intracellular domains of paired immunoglobulin-like receptor β, which signals through the adaptor DAP-12 to activate the NFAT promoter.

NF-κB signaling [3] = experiment: NF-κB reporter assay in 293T cells
Method: as §1

## Nc1ccc2ncnc(NCCc3ccc(Oc4ccccc4)cc3)c2c1 [QNZ]
[1]
  effect of LILRB3 on survival of THP-1 cells: partially abolished the effect of LILRB3 on survival of THP-1 cells

## CC[C@H](C)[C@H](NC(=O)OCc1ccccc1)C(=O)N[C@@H](CCC(=O)OC)C(=O)N[C@H](C(=O)N[C@@H](CC(=O)OC)C(=O)CF)[C@@H](C)O [z-IETD-FMK] (Cbz-IE(OMe)TD(OMe)-CH2F)
NF-κB signaling [2]
  NF-κB reporter activity activated by LILRB3: inhibited the NF-κB reporter activity

## COC(=O)C[C@H](NC(=O)[C@H](C)NC(=O)[C@@H](NC(=O)OCc1ccccc1)C(C)C)C(=O)CF [z-VAD-FMK] (Cbz-Val-Ala-Asp(OMe)-CH2F)
NF-κB signaling [3]; 293T cells co-transfected with TRAF2 or LILRB3
  ability of LILRB3 to stimulate NF-κB through TRAF2: blocked the ability of LILRB3 to stimulate NF-κB through TRAF2
NF-κB signaling [3]; tet-on cFLIP, 0.2 ug/ml of dox
  LILRB3-induced NF-κB activity in 293T cells: blocked LILRB3-induced NF-κB activity
NF-κB signaling [2]
  NF-κB reporter activity activated by LILRB3: inhibited the NF-κB reporter activity
NF-κB signaling [2]; THP-1 cells
  LILRB3-induced NF-κB at low concentration of LPS: blocked LILRB3-induced NF-κB
